The values below come from patent US12139477B2, “Compounds, salts thereof and methods for treatment of diseases” (ACADIA PHARMACEUTICALS INC., priority 2017, dated 2024).

In series [1] the target is T1, hERG channel (Homo sapiens, UniProt Q12809).
T1 construct: host or cells: CHO cells, stably transfected
The experiment in a line: hERG assay, whole cell recordings in CHO cells (AVIVA). It counts as cell-based. Particulars: CHO cells stably expressing hERG, pH 7.4. The protocol:
The most common mechanism for these adverse events is the inhibition of one or more cardiac potassium channels, in particular hERG. This current is important for cardiac myocyte repolarization and is a common target for drugs that prolong the QT interval. Test articles in this study were therefore characterized to determine their ability to inhibit the hERG channel. Ion channel activity was measured at AVIVA Biosciences Corporation (San Diego, CA), using a stably transfected Chinese Hamster Ovary (CHO) cell line expressing the hERG mRNA.
Cells: AVIVA's CHO cell line, which stably expresses hERG channels, was used for the study. Cells were cultured in DMEM/F12 containing 10% FBS, 1% penicillin/streptomycin and 500 μg/ml G418. Before testing, cells were harvested using Accumax (Innovative Cell Technologies).
Solutions: For electrophysiological recordings, the following solutions were used: External Solution: 2 mM CaCl2); 2 mM MgCl2; 4 mM KCl; 150 mM NaCl; 10 mM Glucose; 10 mM HEPES; 305-315 mOsm; pH 7.4 (adjusted with 5M NaOH); Internal Solution: 140 mM KCl; 10 mM MgCl2; 6 mM EGTA; 5 mM HEPES-Na; 5 mM ATP-Mg; 295-305 mOsm; pH 7.25 (adjusted with 1M KOH).
Electrophysiology: Whole cell recordings were performed using PX 7000A (Axon Instruments) with AVIVA's SealChip™ technology. Cells were voltage clamped at a holding potential of −80 mV. The hERG current was then activated by a depolarizing step to −50 mV for 300 ms. This first step at −50 mV was used as a baseline for measuring peak amplitude of the tail current. Next, a voltage step to +20 mV was applied for 5 s to activate the channels. Finally, a step back to −50 mV for 5 s removed activation and the deactivating tail current was recorded.
Test Article Handling and Dilutions: All test articles were prepared from 10 mM DMSO stock solutions provided by Sponsor. Solutions were mixed by sonication for 20 min, followed by vigorous vortexing. Prior to testing, compounds were diluted to test concentrations in glass vials using External Solution. Dilutions were prepared no longer than 20 min prior to use.
Electrophysiology Procedures: After achieving whole cell configuration, cells were monitored for 90 s to assess stability and then washed with External Solution for 66 s. The voltage protocol previously described was then applied to the cells every 12 s throughout the procedure. Only stable cells with recording parameters above threshold (see Quality Control section) were allowed to enter the drug addition procedure. External solution containing 0.1% DMSO (vehicle) was applied to the cells to establish a baseline. […] Test article solutions were added to cells in 4 separate additions. Cells were kept in test solution until effect of the test article reached steady state, to a maximum of 12 min. Next, 1 μM cisapride (positive control) was added. Finally, washout with External Solution was performed until the recovery current reached steady state.
Data Analysis: Data analysis was performed using DataXpress (Axon Instruments), Clampfit (Axon Instruments) and Origin (OriginLab Corporation) software.
(In general: hERG is a cardiac potassium channel; its block is linked to QT prolongation.)

Series [2] concerns the target 5HT2A (Homo sapiens, UniProt P28223). The experiment in a line: Receptor Selection and Amplification (R-SAT) functional assay. It counts as cell-based. More on the design: expressed in transfected cells; host or cells: NIH3T3 cells, pSI mammalian expression vector. Particulars: NIH3T3 cells; Ki from IC50 by Cheng and Prussoff; read-out: 5-HT2a (pKi) (R-SAT) (converted). An excerpt: Receptor Selection and Amplification (R-SAT) Assays. […] The IC50 determined in the RSAT assay was converted into a Ki value using the method of Cheng and Prussoff, Biochem Pharmacol., 1973 Dec. 1; 22(23):3099-108. pKi is the negative of the log(Ki).

T1 sequence (Q12809 whole entry): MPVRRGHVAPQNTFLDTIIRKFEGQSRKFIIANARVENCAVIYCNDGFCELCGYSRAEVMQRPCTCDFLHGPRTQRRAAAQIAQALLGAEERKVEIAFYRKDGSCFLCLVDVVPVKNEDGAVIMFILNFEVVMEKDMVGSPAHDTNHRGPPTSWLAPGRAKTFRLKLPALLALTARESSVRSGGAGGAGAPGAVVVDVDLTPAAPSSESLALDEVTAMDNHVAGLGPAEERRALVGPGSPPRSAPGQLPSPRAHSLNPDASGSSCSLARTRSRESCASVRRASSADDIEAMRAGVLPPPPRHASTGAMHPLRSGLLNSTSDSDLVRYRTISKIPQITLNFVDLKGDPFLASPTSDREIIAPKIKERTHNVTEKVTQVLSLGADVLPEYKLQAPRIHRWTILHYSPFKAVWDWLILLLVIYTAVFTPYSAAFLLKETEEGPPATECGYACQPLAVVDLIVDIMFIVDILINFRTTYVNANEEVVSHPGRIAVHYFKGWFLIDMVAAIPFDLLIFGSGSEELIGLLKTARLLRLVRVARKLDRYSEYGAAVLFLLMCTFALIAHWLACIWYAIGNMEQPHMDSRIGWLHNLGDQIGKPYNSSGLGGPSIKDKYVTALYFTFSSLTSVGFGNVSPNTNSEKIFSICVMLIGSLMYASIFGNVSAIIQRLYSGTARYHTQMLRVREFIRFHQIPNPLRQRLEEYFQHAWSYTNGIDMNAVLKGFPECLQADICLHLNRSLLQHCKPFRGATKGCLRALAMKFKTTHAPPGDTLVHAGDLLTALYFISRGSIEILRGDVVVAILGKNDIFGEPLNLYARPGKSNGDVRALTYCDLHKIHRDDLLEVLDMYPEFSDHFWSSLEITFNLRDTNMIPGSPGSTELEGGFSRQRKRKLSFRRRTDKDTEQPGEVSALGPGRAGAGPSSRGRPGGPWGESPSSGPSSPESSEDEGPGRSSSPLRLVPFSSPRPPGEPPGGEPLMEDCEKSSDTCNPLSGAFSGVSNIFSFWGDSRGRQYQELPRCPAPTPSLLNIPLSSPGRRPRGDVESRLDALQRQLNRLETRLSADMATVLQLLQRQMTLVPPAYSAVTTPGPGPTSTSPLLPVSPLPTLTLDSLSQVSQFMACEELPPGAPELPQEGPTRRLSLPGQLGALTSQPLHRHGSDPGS
Chain of 5HT2A (P28223 whole entry): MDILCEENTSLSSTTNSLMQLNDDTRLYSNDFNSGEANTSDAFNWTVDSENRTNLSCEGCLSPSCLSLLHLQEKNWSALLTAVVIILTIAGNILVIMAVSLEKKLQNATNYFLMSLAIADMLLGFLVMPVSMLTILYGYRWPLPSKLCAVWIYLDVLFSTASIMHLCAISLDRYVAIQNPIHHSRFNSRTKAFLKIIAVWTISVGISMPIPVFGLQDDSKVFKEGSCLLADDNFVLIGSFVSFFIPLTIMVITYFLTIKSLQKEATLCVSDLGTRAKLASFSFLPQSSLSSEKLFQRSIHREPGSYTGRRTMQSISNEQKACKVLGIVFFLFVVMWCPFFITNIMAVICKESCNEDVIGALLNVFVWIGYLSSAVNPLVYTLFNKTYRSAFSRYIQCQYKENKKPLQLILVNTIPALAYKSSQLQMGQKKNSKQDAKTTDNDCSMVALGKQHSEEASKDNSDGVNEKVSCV

For `CCOc1ccc(CNC(=O)N(Cc2ccc(F)cc2F)C2CCN(C)CC2)cc1` [Example 16, 1-[(2,4-difluorophenyl)methyl]-3-[(4-ethoxyphenyl)methyl]-1-(1-methylpiperidin-4-yl)urea], 1 µM produced 29% inhibition in series [1]. Further, the Ki in series [2] is 2 nM. For `CC(C)COc1ccc(CNC(=O)N(Cc2ccc(F)cc2)C2CCN(C)CC2)c(F)c1` [Example 7, 3-{[2-fluoro-4-(2-methylpropoxy)phenyl]methyl}-1-[(4-fluorophenyl)methyl]-1-(1-methylpiperidin-4-yl)urea], in that order: 87% and 2 nM. For `CC(C)Oc1ccc(CNC(=O)N(Cc2ccc(F)cc2F)C2CCN(C)CC2)c(F)c1` [Example 144, 1-[(2,4-difluorophenyl)methyl]-3-{[2-fluoro-4-(propan-2-yloxy)phenyl]methyl}-1-(1-methylpiperidin-4-yl)urea; Trifluoroacetic Acid], in that order: 37% and 1 nM. For `CN1CCC(N(Cc2ccc(F)cc2F)C(=O)NCc2ccc(OCC3CC3)cc2)CC1` [Example 141, 3-{[4-(cyclopropylmethoxy)phenyl]methyl}-1-[(2,4-difluorophenyl)methyl]-1-(1-methylpiperidin-4-yl)urea], in that order: 42% and 0.631 nM. With `CN1CCC(N(Cc2ccc(F)cc2F)C(=O)NCc2ccc(C(C)(F)F)cc2)CC1` [Example 152, 1-{[4-(1,1-difluoroethyl)phenyl]methyl}-3-[(2,4-difluorophenyl)methyl]-3-(1-methylpiperidin-4-yl)urea; Trifluoroacetic Acid], the inhibition (usually the percentage by which the read-out fell short of the control) at 1 µM in series [1] was 38%. Besides, the Ki in series [2] was 2.51 nM. For `CN1CCC(N(Cc2ccc(F)cc2F)C(=O)NCc2ccc3c(c2)C=CC(C)(C)O3)CC1` [Example 155, 1-[(2,4-difluorophenyl)methyl]-3-[(2,2-dimethyl-2H-chromen-6-yl)methyl]-1-(1-methylpiperidin-4-yl)urea; Trifluoroacetic Acid], in that order: 47% and 0.158 nM. For `C#CCOc1ccc(CNC(=O)N(Cc2ccc(F)cc2F)C2CCN(C)CC2)cc1` [Example 148, 1-[(2,4-difluorophenyl)methyl]-1-(1-methylpiperidin-4-yl)-3-{[4-(prop-2-yn-1-yloxy)phenyl]methyl}urea; Trifluoroacetic Acid], in that order: 33% and 2 nM. For `CC(C)COc1ccc(CNC(=O)N(Cc2ccc(Cl)cc2Cl)C2CCN(C)CC2)cc1` [Example 107, 1-[(2,4-dichlorophenyl)methyl]-1-(1-methylpiperidin-4-yl)-3-{[4-(2-methylpropoxy)phenyl]methyl}urea], in that order: 43% and 126 nM. In series [1], `CN1CCC(N(Cc2ccc(F)cc2F)C(=O)NCc2ccc3cn[nH]c3c2)CC1` [Example 41] displayed an inhibition at 1 µM of 23%.

As to `O=C(NCc1ccc(OC2CC2)cc1)N(Cc1ccc(F)cc1F)C1CCNCC1` [Example 157, 1-[(4-cyclopropoxyphenyl)methyl]-3-[(2,4-difluorophenyl)methyl]-3-(piperidin-4-yl)urea; Trifluoroacetic Acid], at 1 µM the inhibition in series [1] was 20%. Also, in series [2], the Ki was 0.631 nM.

The compound `CC1(C)Cc2cc(CNC(=O)N(Cc3ccc(F)cc3F)C3CCNCC3)ccc2O1` [Example 158, 1-[(2,4-difluorophenyl)methyl]-3-[(2,2-dimethyl-2,3-dihydro-1-benzofuran-5-yl)methyl]-1-(piperidin-4-yl)urea; Trifluoroacetic Acid] returned an inhibition at 1 µM in series [1] of 8%. The Ki in series [2] is 0.794 nM. For `CN1CCC(N(Cc2ccc(F)cc2F)C(=O)NCc2ccc3c(c2)CCO3)CC1` [Example 10, 1-[(2,4-difluorophenyl)methyl]-3-[(2,3-dihydro-1-benzofuran-5-yl)methyl]-1-(1-methylpiperidin-4-yl)urea], in that order: 10% and 1 nM. For `CC(C)COc1ccc(CNC(=O)N(Cc2ccc(F)cc2O)C2CCN(C)CC2)cc1` [Example 13, 1-[(4-fluoro-2-hydroxyphenyl)methyl]-1-(1-methylpiperidin-4-yl)-3-{[4-(2-methylpropoxy)phenyl]methyl}urea], in that order: 34% and 0.0794 nM. `COc1cc(F)c(F)cc1CN(C(=O)NCc1ccc(OC(C)C)cc1)C1CCN(C)CC1` [Example 138, 1-[(4,5-difluoro-2-methoxyphenyl)methyl]-1-(1-methylpiperidin-4-yl)-3-{[4-(propan-2-yloxy)phenyl]methyl}urea; Trifluoroacetic Acid]: testing at 1 µM in series [1] gave an inhibition of 13%. Turning to `CN1CCC(N(Cc2ccc(F)cc2F)C(=O)NCc2ccc3c(c2)n(C)c(=O)n3C)CC1` [Example 40], testing at 1 µM in series [1] gave an inhibition of 9%.

`Cc1nc2cc(CNC(=O)N(Cc3ccc(F)cc3F)C3CCN(C)CC3)ccc2o1` [Example 22] had an inhibition at 1 µM in series [1] of 10%. On to `CCCCC(CC)COc1ccc(CNC(=O)N(Cc2ccc(F)cc2F)C2CCN(C)CC2)cc1` (stereo not drawn) [Example 147, 1-[(2,4-difluorophenyl)methyl]-3-({4-[(2-ethylhexyl)oxy]phenyl}methyl)-1-(1-methylpiperidin-4-yl)urea; Trifluoroacetic Acid], for which the Ki in series [2] is 3.16 nM. As to `COc1cc(F)c(CN(C(=O)NCc2ccc(OC(C)C)cc2)C2CCN(C)CC2)c(F)c1` [Example 136, 1-[(2,6-difluoro-4-methoxyphenyl)methyl]-1-(1-methylpiperidin-4-yl)-3-{[4-(propan-2-yloxy)phenyl]methyl}urea; Trifluoroacetic Acid], the Ki in series [2] is 7.94 nM.

For `COc1c(F)ccc(CNC(=O)N(Cc2ccc(F)cc2F)C2CCN(C)CC2)c1F` [Example 54], in series [2], the Ki was 7.94 nM.

As for `COc1ccc(CN(C(=O)NCc2ccc(OCC(C)C)cc2)C2CCN(C)CC2)c(Cl)c1` [Example 105, 1-[(2-chloro-4-methoxyphenyl)methyl]-1-(1-methylpiperidin-4-yl)-3-{[4-(2-methylpropoxy)phenyl]methyl}urea; Trifluoroacetic Acid], the Ki in series [2] was 100 nM. The same measure, in the same setting: with `COc1ccc(CNC(=O)N(Cc2ccc(F)cc2F)C2CCN(C)CC2)c(C(F)(F)F)c1` [Example 53] the figure was 25.1 nM; with `CCCOc1ccc(CNC(=O)N(Cc2ccc(F)cc2F)C2CCN(C)CC2)cc1` [Example 140, 1-[(2,4-difluorophenyl)methyl]-1-(1-methylpiperidin-4-yl)-3-[(4-propoxyphenyl)methyl]urea], 3.16 nM. In the case of `CN1CCC(N(Cc2ccc(F)cc2F)C(=O)NCc2ccc3c(c2)ncn3C)CC1` [Example 55], at 1 µM the inhibition in series [1] was 10%. For the compound `O=C(O)C(F)(F)F.[2H]C([2H])([2H])C(Oc1ccc(CNC(=O)N(Cc2ccc(F)cc2F)C2CCN(C)CC2)cc1)(C([2H])([2H])[2H])C([2H])([2H])[2H]` [Example 46], the Ki in series [2] is 0.794 nM.

On to `CC(C)COc1ccc(CNC(=O)N(Cc2cc(F)ccc2F)C2CCN(C)CC2)cc1` [Example 63], for which the Ki in series [2] is 79.4 nM. Turning to `COc1cc(CNC(=O)N(Cc2ccc(F)cc2F)C2CCN(C)CC2)ccc1F` [Example 146, 1-[(2,4-difluorophenyl)methyl]-3-[(4-fluoro-3-methoxyphenyl)methyl]-1-(1-methylpiperidin-4-yl)urea; Trifluoroacetic Acid], the Ki in series [2] was 5.01 nM. With `COc1cc(F)c(CNC(=O)N(Cc2ccc(F)cc2F)C2CCN(C)CC2)c(F)c1` [Example 150, 1-[(2,6-difluoro-4-methoxyphenyl)methyl]-3-[(2,4-difluorophenyl)methyl]-3-(1-methylpiperidin-4-yl)urea; Trifluoroacetic Acid], the Ki in series [2] is 5.01 nM.
